Where no end group is shown, it is not given here.
Legend:
Assay type in all cases: cell-based, human
[1] = system: allergen specific T cells; test: T cell proliferation assay (72 h) on donor derived T cell lines (TCL02/TCL03); settings: for Proliferation % donor coverage (TCL-02 DK1): T cell lines TCL-02 DK1, 30 donors, hit criteria SI>=2, CPM>=1000; for Proliferation strength (TCL-02 DK1): T cell lines TCL-02 DK1, strength of response (average relative magnitude)
Text: Isolated PBMCs (peripheral blood mononuclear cells) obtained from the donors described in Example 2 were CD8 depleted and the T cell lines were established by stimulating the cultures with nPhl p1, mix of nPhl p 2 and […] 5 and […] established for each of the donors tested by stimulating with the mixture of above listed allergens. Grass allergic donors were recruited (cohort DK1 including 30 grass allergic individuals, DK2 including 24 grass allergic individuals and US1 including 15 grass allergic individuals). PBMCs were isolated from freshly drawn heparinized blood by gradient centrifugation on lymphoprep (Nycomed, Norway), washed twice and re-suspended in RPMI 1640 medium with HEPES and ultraglutamine (Cambrex, Belgium) supplemented with 5% v/v human AB-serum (Cambrex, Belgium), 100 units/ml penicillin, and 0.1 mg/ml streptomycin (Sigma, St Louis, USA) (referred to as 5% AB-medium). Aliquots of the isolated PBMCs were frozen and were thawed later to stimulate the T cell lines. Additionally either fresh or thawed PBMCs were used as antigen presenting cells (APCs) in the proliferation assay as described later. In some cases the PBMCs were freezed at this stage and thawed later on to continue the experiment as described in the following. The isolated PBMCs (fresh or thawed) were CD8 depleted by MACS magnetic depletion according to the manufacturer's instructions (Miltenyi Biotec, Bergisch Gladbach, Germany). On day 0 the CD8-depleted PBMCs (2×10^6/ml) were stimulated in 1 ml bulk cultures in AB medium in 24 well plates (Nunc, Denmark) with the mixture of natural allergens: nPhl p 1 (0.5 μg/ml), mix of […]). […] On day 14 cells were harvested to obtain T cell line generation 01 (referred to as TCL01). Restimulation of T cell lines were performed in AB-medium with the thawed autologous PBMCs (10^6/well, irradiated 2500 Rad), the above mixture of natural allergens (concentration as mentioned above), and PHA-P (0.5 μg/ml, Difco, Detroit, Mich., USA). rIL-2 was added at day 17, 18 and 19. On day 24 cells were harvested to obtain T cell line generation 02 (referred as TCL02). T cells were isolated, washed, counted and used for T cell proliferation assay as described later. Remaining cells were frozen for later thawing and re-stimulations. The T cell line generation 2 (TCL02) were thawed and were re-stimulated with allogeneic Epstein Bar Virus transformed lymphoblastoid cell lines (EBV) B cells (JY cells, 10^5/well, irradiated 3500 Rad), allogeneic PBMCs (10^6/well, irradiated 2500 Rad), and 0.5 μg/ml PHA-P and subsequent addition of rIL-2 at days 3-5 to generate T cell line generation 03 (referred to as TCL03). […] To summarize ELISpot experiments were carried out at day 14 (with TCL01) and proliferation assay on either day 24 (with TCL02) or at day 34 (with TCL03). […] To ensure that all T cell epitopes regions from the major and intermediate grass allergens of the grass were identified T cell screening was carried out with either overlapping peptides or selected peptides. […] These were overlapping 20-mer peptides spanning the entire full length amino acid sequence of […] and selected high binder peptides from Phl p 4 were tested. Additionally 21, 15 mer peptides were tested which were derived from various group 1 and 5 allergens. Also, 67 peptides from homologous grass allergens were tested. Finally some reference peptides and mixes thereof were also tested. The 15-mer peptides were selected on the basis of predicted and measured promiscuous HLA binding and of sequence homology between known proteins sequences from the relevant pooideae grasses and the Bermuda grass. […] To get comprehensive data from all the donors the peptides were tested in both Fluorospot/Elispot (day 14, TCL01) and proliferation (day 24, TCL02).

[2] = system: release of IL-5 upon T cell activation; test: Fluorospot assay, IL-5 release (DK1-TCL01, US1-TCL01); settings: head prints TCL-02 DK1; text: 25 TCL-01 DK1 lines
Method: (§1) Grass allergic donors were recruited (cohort DK1 including 30 grass allergic individuals, DK2 including 24 grass allergic individuals and US1 including 15 grass allergic individuals). PBMCs were isolated from freshly drawn heparinized blood by gradient centrifugation on lymphoprep (Nycomed, Norway), washed twice and re-suspended in RPMI 1640 medium with HEPES and ultraglutamine (Cambrex, Belgium) supplemented with 5% v/v human AB-serum (Cambrex, Belgium), 100 units/ml penicillin, and 0.1 mg/ml streptomycin (Sigma, St Louis, USA) (referred to as 5% AB-medium). Aliquots of the isolated PBMCs were frozen and were thawed later to stimulate the T cell lines. Additionally either fresh or thawed PBMCs were used as antigen presenting cells (APCs) in the proliferation assay as described later. In some cases the PBMCs were freezed at this stage and thawed later on to continue the experiment as described in the following. The isolated PBMCs (fresh or thawed) were CD8 depleted by MACS magnetic depletion according to the manufacturer's instructions (Miltenyi Biotec, Bergisch Gladbach, Germany). On day 0 the CD8-depleted PBMCs (2×10^6/ml) were stimulated in 1 ml bulk cultures in AB medium in 24 well plates (Nunc, Denmark) with the mixture of natural allergens: nPhl p 1 (0.5 μg/ml), mix of nPhl p 2/nPhl p 3 (1.0 μg/ml), nPhl p 4 (0.5 μg/ml), nPhl p 5 (0.5 μg/ml) and nCyn d 1 (0.5 μg/ml). Amount of 65 U, 30 U, and 30 U recombinant IL-2 (Chiron, USA) were added per well at days 5, 6 and 7, respectively. On day 14 cells were harvested to obtain T cell line generation 01 (referred to as TCL01).
(§2) On day 14 the T cells of TCL01 were isolated, washed and counted. The isolated T cells of TCL01 generation were used to perform either ELISpot or Fluorospot assay. TCL01 were further re-stimulated as described in the next paragraph for use in T cell proliferation. The aliquot for use in T cell proliferation was re-stimulated on day 14 to carry out proliferation experiment at day 24.
(§3) In the Fluorospot assays, release of IL-5 and IFN-γ upon T cell activation (of donor derived lines DK1-TCL01, and US1-TCL01) with a peptide or a peptide-mix described herein was measured by Fluorospot assay kit (Mabtech AB) and procedures were followed as per manufacturer's instructions. Briefly anti-human IL-5 and anti-human IFN-γ coated 96 well plates were obtained and blocked with 10% AB serum in RPMI. The plates were washed thoroughly and the isolated T cells were plated and incubated with either single peptides (2 μg/ml) or peptide mixes (2 μg/ml), or allergens nPhl p1, nPhl p 2, nPhl p 3, nPhl p 4, nPhl p 5, Cyn d 1 at 2 μg/ml for 20 hrs/37° C./5% CO2. After the incubation time the cells were removed by emptying the plate. Detection antibodies 7-B6-1-FS-FITC (1:200) and 5A10-biotin (2 μg/ml) were diluted in PBS-0.1% BSA and were added to the plate and incubated for 2 hours/room temperature (RT). There-after the plates were washed and anti-FITC-green (1:200) and SA-Red (1:200) diluted in PBS±0.1% BSA were added and incubated for 1 hour/RT/dark. After the incubation period the plates were washed, emptied and fluorescence enhancer solution was added for 15 minutes/RT. Plates were emptied, fluorescence enhancer solution was firmly tapped out against a clean paper, soft plastic under drain was removed and the plates were left in the dark to dry. The counts were inspected in a fluorospot reader. Hit criteria for peptide were 20 SFCs/10^6 PBMCs, p≤0.05 and poisson 0.05 stimulated cells compared to background, and a stimulation index (SI)≥2.
(§4) The peptides were identified as hits if they fulfilled the criteria as mentioned below where stimulation index (SI) value of 2 or above, Poisson value=<0.05 and P value=<0.05, SFC>=20 (IL-5/IFN-g)/10^6 cells and CPM>=1000 (proliferation) SI can be defined as [[…]/medium control] in a Fluorospot assay and [counts per minute (cpm)/medium control] in a proliferation assay.

[3] = system: release of IFN-γ upon T cell activation; test: Fluorospot assay, IFN-γ release (DK1-TCL01, US1-TCL01); settings: head prints TCL-02 DK1; 17 TCL-01 DK1 lines
Method: as §1, §2, §3, §4

| Molecule | Proliferation % donor coverage (TCL-02 DK1) [1] [%] | Proliferation strength (TCL-02 DK1) [1] | IL-5-Fluorospotr % donor coverage (TCL-02 DK1) [2] [%] | IFN-gamma % donor coverage (TCL-02 DK1) [3] [%] |
| --- | --- | --- | --- | --- |
| TPFPHRKGVLFNIQYVNYWF-OH [compound 50] | 43.33 | 6.70 | 28.00 | 8.00 |
| VRYTTEGGTKTEAEDVIPEG-OH [compound 12] | 23.33 | 7.00 | 8.00 | 8.00 |
| SKYPSGTKITFHIEKGSNDH-OH [compound 103] | 36.67 | 6.50 | 8.00 | 4.00 |
| RFLTEKGMKNVFDDVVPEKY-OH [compound 34] | 6.67 | 0.60 | 4.00 | 0.00 |
| KPAAAATATATSAVGAATGA-OH [compound 87] | 10.00 | 0.70 | 0.00 | 0.00 |
| AVKPAAEEVKVIPAGELQVI-OH [compound 81] | 20.00 | 2.60 | 0.00 | 0.00 |
| WLDAKSTWYGKPTGAGPKDN-OH [compound 1] | 26.67 | 4.70 | 24.00 | 4.00 |
| EQKLIEKINAGFKAALAAAA-OH [compound 62] | 36.67 | 6.20 | 4.00 | 0.00 |
| HGSEEWEPLTKKGNVWEVKS-OH [compound 37] | 26.67 | 3.20 | 4.00 | 0.00 |
| KPPFSGMTGSGNTPIFKSGR-OH [compound 19] | 16.67 | 1.10 | 0.00 | 0.00 |
| EPIFKDGLGSRASYEIKSKE-OH [compound 95] | 20.00 | 2.20 | 0.00 | 4.00 |
| CC[C@H](C)[C@H](NC(=O)[C@@H](NC(=O)[C@H](CC(=O)O)NC(=O)[C@H](CCC(=O)O)NC(=O)[C@H](C)NC(=O)[C@H](CCC(=O)O)NC(=O)[C@@H](N)[C@@H](C)O)C(C)C)C(=O)N1CCC[C@H]1C(=O)N[C@@H](CCC(=O)O)C(=O)NCC(=O)N[C@@H](Cc1c[nH]c2ccccc12)C(=O)N[C@@H](CCCCN)C(=O)N[C@@H](C)C(=O)N[C@@H](CC(=O)O)C(=O)N[C@H](C(=O)N[C@@H](CO)C(=O)N[C@@H](Cc1ccc(O)cc1)C(=O)N[C@@H](CCC(=O)O)C(=O)N[C@@H](CO)C(=O)N[C@@H](CCCCN)C(=O)O)[C@@H](C)O [compound 13] | 43.33 | 8.10 | 16.00 | 8.00 |
| GRRHSVRIRVRSGGHDYEGL-OH [compound 51] | 10.00 | 0.40 | 0.00 | 0.00 |
| AEVELRQHGSEEWEPLTKKG-OH [compound 43] | 3.33 | 0.70 | 4.00 | 0.00 |
| TKKGNVWEVKSSKPLVGPFN-OH [compound 38] | 50.00 | 6.60 | 24.00 | 4.00 |
| AEPAGKATTEEQKLIEKINA-OH [compound 74] | 10.00 | 1.50 | 4.00 | 0.00 |
| YASGKVWGQKYFKGNFERLA-OH [compound 58] | 20.00 | 2.40 | 4.00 | 0.00 |
| EAKYDAYVATLSEALRIIAG-OH [compound 66] | 46.67 | 11.20 | 20.83 | 0.00 |

— patent US20180207228A1, “PEPTIDE COMBINATIONS AND USES THEREOF FOR TREATING GRASS ALLERGY” (ALK-Abelló A/S, priority 2015, published 2018)
